Reference: the CheMixHub viscosity set
± gives the uncertainty stated by the source.

Test: xn = mol fraction of the nth substance listed

O=CN1CCOCC1 + Cc1ccc(C)cc1
viscosity [mPa·s]
Conditions	298.15 K	303.15 K	313.15 K	323.15 K
101 kPa, x2 = 0.1	5.473 ± 0.12	4.774 ± 0.1	3.78 ± 0.084	3.059 ± 0.069
101 kPa, x2 = 0.2	3.996 ± 0.088	3.557 ± 0.079	2.865 ± 0.065	2.378 ± 0.054
101 kPa, x2 = 0.3	3.008 ± 0.068	2.716 ± 0.061	2.243 ± 0.051	1.893 ± 0.044
101 kPa, x2 = 0.4	2.311 ± 0.053	2.107 ± 0.048	1.782 ± 0.042	1.528 ± 0.036
101 kPa, x2 = 0.5	1.837 ± 0.043	1.7 ± 0.04	1.443 ± 0.034	1.263 ± 0.03
101 kPa, x2 = 0.6	1.38 ± 0.033	1.295 ± 0.031	1.098 ± 0.027	0.944 ± 0.024
101 kPa, x2 = 0.7	1.099 ± 0.027	1.018 ± 0.025	0.8763 ± 0.022	0.7736 ± 0.02
101 kPa, x2 = 0.8	0.8844 ± 0.022	0.824 ± 0.021	0.7219 ± 0.019	0.6357 ± 0.017
101 kPa, x2 = 0.9	0.731 ± 0.019	0.6863 ± 0.018	0.6047 ± 0.016	0.5387 ± 0.015
101.3 kPa, x2 = 0.02757	6.848 ± 0.048	–	–	–
101.3 kPa, x2 = 0.05782	6.12 ± 0.043	–	–	–
101.3 kPa, x2 = 0.09608	5.439 ± 0.04	–	–	–
101.3 kPa, x2 = 0.1653	4.378 ± 0.033	–	–	–
101.3 kPa, x2 = 0.2769	3.14 ± 0.024	–	–	–
101.3 kPa, x2 = 0.355	2.505 ± 0.019	–	–	–
101.3 kPa, x2 = 0.4708	1.842 ± 0.015	–	–	–
101.3 kPa, x2 = 0.5471	1.542 ± 0.012	–	–	–
101.3 kPa, x2 = 0.6377	1.231 ± 0.01	–	–	–
101.3 kPa, x2 = 0.6871	1.093 ± 0.009	–	–	–
101.3 kPa, x2 = 0.7745	0.899 ± 0.008	–	–	–
101.3 kPa, x2 = 0.8554	0.772 ± 0.007	–	–	–
101.3 kPa, x2 = 0.9319	0.668 ± 0.006	–	–	–

O=CN1CCOCC1 + Cc1cccc(C)c1
viscosity [mPa·s]
Conditions	298.15 K	303.15 K	313.15 K	323.15 K
101 kPa, x2 = 0.1	5.508 ± 0.12	4.826 ± 0.11	3.793 ± 0.084	3.081 ± 0.069
101 kPa, x2 = 0.2	4.047 ± 0.089	3.589 ± 0.08	2.886 ± 0.065	2.4 ± 0.055
101 kPa, x2 = 0.3	3.049 ± 0.068	2.741 ± 0.062	2.257 ± 0.052	1.905 ± 0.044
101 kPa, x2 = 0.4	2.34 ± 0.053	2.132 ± 0.049	1.778 ± 0.042	1.522 ± 0.036
101 kPa, x2 = 0.5	1.792 ± 0.042	1.646 ± 0.039	1.381 ± 0.033	1.192 ± 0.029
101 kPa, x2 = 0.6	1.38 ± 0.033	1.267 ± 0.031	1.076 ± 0.026	0.9311 ± 0.023
101 kPa, x2 = 0.7	1.082 ± 0.027	1.002 ± 0.025	0.8623 ± 0.022	0.7574 ± 0.019
101 kPa, x2 = 0.8	0.8664 ± 0.022	0.8124 ± 0.021	0.708 ± 0.018	0.6298 ± 0.017
101 kPa, x2 = 0.9	0.7069 ± 0.018	0.6603 ± 0.017	0.586 ± 0.016	0.5286 ± 0.015
101.3 kPa, x2 = 0.03245	7.014 ± 0.048	–	–	–
101.3 kPa, x2 = 0.06364	6.442 ± 0.045	–	–	–
101.3 kPa, x2 = 0.09907	5.89 ± 0.042	–	–	–
101.3 kPa, x2 = 0.1608	5.016 ± 0.037	–	–	–
101.3 kPa, x2 = 0.2806	3.707 ± 0.028	–	–	–
101.3 kPa, x2 = 0.3561	3.033 ± 0.023	–	–	–
101.3 kPa, x2 = 0.4744	2.278 ± 0.018	–	–	–
101.3 kPa, x2 = 0.5701	1.829 ± 0.015	–	–	–
101.3 kPa, x2 = 0.6556	1.511 ± 0.012	–	–	–
101.3 kPa, x2 = 0.6984	1.38 ± 0.011	–	–	–
101.3 kPa, x2 = 0.7819	1.159 ± 0.01	–	–	–
101.3 kPa, x2 = 0.876	0.961 ± 0.008	–	–	–
101.3 kPa, x2 = 0.9337	0.875 ± 0.007	–	–	–

O=CN1CCOCC1 + Cc1ccccc1
298.15 K, 101.3 kPa
Conditions	viscosity [mPa·s]
x2 = 0.01784	7.177 ± 0.049
x2 = 0.06829	6.102 ± 0.043
x2 = 0.1881	4.224 ± 0.032
x2 = 0.2675	3.336 ± 0.025
x2 = 0.3466	2.653 ± 0.021
x2 = 0.4247	2.155 ± 0.017
x2 = 0.5094	1.701 ± 0.014
x2 = 0.5956	1.359 ± 0.011
x2 = 0.6849	1.099 ± 0.009
x2 = 0.7722	0.879 ± 0.007
x2 = 0.8479	0.759 ± 0.007
x2 = 0.9178	0.646 ± 0.006

S=C=S + Cc1ccccc1
298.15 K, 101 kPa
Conditions	viscosity [mPa·s]
x1 = 0.1	0.5295 ± 0.0068
x1 = 0.2	0.5063 ± 0.0065
x1 = 0.3	0.4837 ± 0.0062
x1 = 0.4	0.462 ± 0.006
x1 = 0.5	0.4412 ± 0.0057
x1 = 0.6	0.4217 ± 0.0055
x1 = 0.7	0.4035 ± 0.0053
x1 = 0.8	0.3868 ± 0.0051
x1 = 0.9	0.3718 ± 0.0049
x2 = 0.06082	0.37 ± 0.005
x2 = 0.3361	0.417 ± 0.006
x2 = 0.587	0.469 ± 0.006

O=CN1CCOCC1 + Cc1ccccc1C
viscosity [mPa·s]
Conditions	298.15 K	303.15 K	313.15 K	323.15 K
101 kPa, x2 = 0.1	5.936 ± 0.12	5.18 ± 0.11	4.063 ± 0.09	3.294 ± 0.074
101 kPa, x2 = 0.2	4.582 ± 0.1	4.054 ± 0.09	3.243 ± 0.073	2.671 ± 0.06
101 kPa, x2 = 0.3	3.602 ± 0.08	3.231 ± 0.072	2.627 ± 0.06	2.194 ± 0.05
101 kPa, x2 = 0.4	2.87 ± 0.065	2.584 ± 0.059	2.142 ± 0.049	1.8 ± 0.042
101 kPa, x2 = 0.5	2.233 ± 0.051	2.034 ± 0.047	1.71 ± 0.04	1.467 ± 0.035
101 kPa, x2 = 0.6	1.744 ± 0.041	1.583 ± 0.037	1.347 ± 0.032	1.161 ± 0.028
101 kPa, x2 = 0.7	1.385 ± 0.033	1.271 ± 0.031	1.08 ± 0.026	0.9316 ± 0.023
101 kPa, x2 = 0.8	1.122 ± 0.027	1.034 ± 0.025	0.8894 ± 0.022	0.7789 ± 0.02
101 kPa, x2 = 0.9	0.9104 ± 0.023	0.8483 ± 0.022	0.7328 ± 0.019	0.6556 ± 0.017
101.3 kPa, x2 = 0.05737	6.316 ± 0.045	–	–	–
101.3 kPa, x2 = 0.1297	4.989 ± 0.037	–	–	–
101.3 kPa, x2 = 0.2312	3.617 ± 0.027	–	–	–
101.3 kPa, x2 = 0.5161	1.652 ± 0.013	–	–	–
101.3 kPa, x2 = 0.5998	1.343 ± 0.011	–	–	–
101.3 kPa, x2 = 0.6877	1.088 ± 0.009	–	–	–
101.3 kPa, x2 = 0.7767	0.908 ± 0.008	–	–	–
101.3 kPa, x2 = 0.9523	0.635 ± 0.006	–	–	–
